Measured values reported in patent US8575135B2 (Gilead Sciences, Inc., priority 2011, dated 2013).
Read-outs that look alike come from different tables or passages of the source.

Columns and labels:
[1] = tested on: stable HCV 2a JFH-1 Rluc replicon cells (L31 present in NS5A); experiment: microbe, parasite or virus in culture; assay type: cell-based; conditions: Hepatitis C virus
[2] = IV and PO single dose pharmacokinetic studies in SD rats; assay type: in vivo; conditions: male, Sprague-Dawley, rat, plasma, IV infusion 1 mg/kg vs oral gavage 2 mg/kg, read-out: Rat % F
Protocol: IV and PO Single Dose Pharmacokinetic Studies in SD Rats: The pharmacokinetics of selected compounds was characterized in male Sprague-Dawley (SD) rats (250-300g). […] The intravenous (IV) dosing vehicle was 5% ethanol, 35% polyethylene glycol 400 (PEG 400) and 60% water pH 2.0. […] Serial blood samples (approximately 0.3 mL each) were collected from jugular vein or other suitable vein at specified time points. […] The blood samples were collected into Vacutainer™ tubes containing EDTA-K3 as the anti-coagulant and were centrifuged at approximately 4° C. to obtain plasma. The plasma samples were stored at −20° C. until analysis by LC/MS/MS. A bioanalytical method utilizing high performance liquid chromatography coupled to tandem mass spectrometry (LC/MS/MS) was developed for analysis of the selected compound in rat plasma. Detection was performed using selected reaction monitoring (SRM); […] Standard curve and quality control samples were prepared in male rat plasma and processed in the same way as the test samples to generate quantitative data. Pharmacokinetic parameters were generated using non-compartmental pharmacokinetic analysis (Phoenix WinNonlin, version 6.3). Values below the lower limit of quantification (LLOQ) were assigned a value of zero if predose and treated as missing thereafter. Area under the curve (AUC) was calculated using the linear trapezoidal rule. The oral bioavailability (% F) was determined by comparison of the area under the curve (AUC) of the compound and/or a metabolite generated in plasma following oral administration to that generated following intravenous administration.

[3] = tested on: stable HCV 1a RLuc replicon cells (genotype 1a H77 replicon); experiment: microbe, parasite or virus in culture; assay type: cell-based; conditions: Hepatitis C virus
[4] = tested on: NS5A chimeric genotype 1b Con1 replicon with genotype 4a ED43 strain NS5A gene; experiment: microbe, parasite or virus in culture; assay type: cell-based, HCV; conditions: Hepatitis C virus
[5] = tested on: 1a Pi-Rluc replicon with Q30R in genotype 1a NS5A; experiment: microbe, parasite or virus in culture; assay type: cell-based, HCV; conditions: Hepatitis C virus
Summary of the method: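 Q30R introduced by site-directed mutagenesis into genotype 1a Pi-RLuc replicon; RNA transiently transfected into Huh-7-derived cured-51 cells.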

[6] = tested on: NS5A chimeric genotype 2a JFH-1 replicon with genotype 2b MD2b-1 strain NS5A gene (M31 present); experiment: microbe, parasite or virus in culture; assay type: cell-based, HCV; conditions: Hepatitis C virus
Summary of the method: (§1)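 Con1 1b replicons carrying 3a S52 or 4a ED43 NS5A with Pi-RLuc reporter were transiently transfected into Huh-Lunet cells; 2b MD2b-1 NS5A (M31) in JFH-1 2a backbone with RLuc-Neo, transient or stable.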

[7] = tested on: NS5A chimeric genotype 1b Con1 replicon with genotype 3a S52 strain NS5A gene; experiment: microbe, parasite or virus in culture; assay type: cell-based, HCV; conditions: Hepatitis C virus
Summary of the method: as §1

[8] = tested on: NS5A chimeric genotype 2a JFH-1 replicon with genotype 2a J6 strain NS5A gene (M31 present); experiment: microbe, parasite or virus in culture; assay type: cell-based, HCV; conditions: Hepatitis C virus
[9] = tested on: stable HCV 1b RLuc replicon cells (genotype 1b Con1 replicon); experiment: microbe, parasite or virus in culture; assay type: cell-based; conditions: Hepatitis C virus, read-out: 1b (nM)

Structure (SMILES) | EC50 ([1]; read-out: 2a JFH) | EC50 ([1]; read-out: 2a JFH (nM)) | bioavailability [2] | EC50 ([3]; read-out: 1a) | EC50 ([3]; read-out: 1a (nM)) | EC50 ([4]; read-out: 4a) | EC50 ([4]; read-out: 4a (s) (nM)) | EC50 ([4]; read-out: 4a (t) (nM)) | EC50 ([5]; read-out: 1a Q30R) | EC50 ([5]; read-out: 1a Q30R (nM)) | EC50 ([6]; read-out: 2b) | EC50 ([6]; read-out: 2b (s) (nM)) | EC50 ([6]; read-out: 2b (t) (nM)) | EC50 ([7]; read-out: 3a) | EC50 ([7]; read-out: 3a (nM)) | EC50 ([8]; read-out: 2a J6) | EC50 ([8]; read-out: 2a J6 (s) (nM)) | EC50 ([8]; read-out: 2a Jb (t) (nM)) | EC50 [9]
COC[C@H]1C[C@@H](c2nc3ccc4cc5c(cc4c3[nH]2)OCc2cc(-c3cnc([C@@H]4CC[C@H](C)N4C(=O)[C@@H](NC(=O)OC)C(C)C)[nH]3)ccc2-5)N(C(=O)[C@@H](NC(=O)OC)C(C)C)C1 [Example MP, methyl{(2S)-1-[(2S,5S)-2-(5-{2-[(2S,4S)-1-{(2S)-2-[(methoxycarbonyl)amino]-3-methylbutanoyl}-4-methoxymethylpyrrolidin-2-yl]-1,11-dihydroisochromeno[4′,3′:6,7]naphtho[1,2-d]imidazol-9-yl}-1H-imidazol-2-yl)-5-methylpyrrolidin-1-yl]-3-methyl-1-oxobutan-2-yl}carbamate] | < 1 nM | 0.004 nM | 24.2% | < 1 nM | 0.006 nM | < 1 nM | 0.013 nM | 0.015 nM | < 1 nM | 0.031 nM | < 1 nM | 0.184 nM | 0.032 nM | < 1 nM | 0.015 nM | < 1 nM | 0.336 nM | 0.039 nM | –
COC[C@H]1C[C@@H](c2ncc(-c3ccc4c(c3)COc3cc5c(ccc6nc([C@@H]7CC[C@H](C)N7C(=O)[C@@H](NC(=O)OC)[C@@H](C)OC)[nH]c65)cc3-4)[nH]2)N(C(=O)[C@@H](NC(=O)OC)C(C)C)C1 [Example PI, methyl {(2S)-1-[(2S,4S)-2-(5-{2-[(2S,5S)-1-{(2S,3R)-3-methoxy-2-[(methoxycarbonyl)amino]butanoyl}-5-methylpyrrolidin-2-yl]-1,11-dihydroisochromeno[4′,3′:6,7]naphtho[1,2-d]imidazol-9-yl}-1H-imidazol-2-yl)-4-(methoxymethyl)pyrrolidin-1-yl]-3-methyl-1-oxobutan-2-yl}carbamate] | < 1 nM | 0.02 nM | 8.7% | < 1 nM | 0.031 nM | – | – | – | < 1 nM | 0.094 nM | < 1 nM | – | 0.09 nM | < 1 nM | 0.065 nM | < 1 nM | – | 0.129 nM | 0.039 nM
COC[C@H]1C[C@@H](c2nc3ccc4cc5c(cc4c3[nH]2)OCc2cc(-c3cnc([C@@H]4C[C@H](C)CN4C(=O)[C@@H](NC(=O)OC)C(C)C)[nH]3)ccc2-5)N(C(=O)[C@H](NC(=O)OC)c2ccccc2)C1 [Example MN, methyl {(2S)-1-[(2S,4S)-2-(5-{2-[(2S,4S)-1-{(2R)-2-[(methoxycarbonyl)amino]-2-phenylacetyl}-4-(methoxymethyl)pyrrolidin-2-yl]-1,11-dihydroisochromeno[4′,3′:6,7]naphtho[1,2-d]imidazol-9-yl}-1H-imidazol-2-yl)-4-methylpyrrolidin-1-yl]-3-methyl-1-oxobutan-2-yl}carbamate] | < 1 nM | 0.008 nM | 1.5% | < 1 nM | 0.014 nM | < 1 nM | 0.007 nM | 0.024 nM | < 1 nM | 0.018 nM | < 1 nM | 0.04 nM | 0.013 nM | < 1 nM | 0.034 nM | < 1 nM | 0.071 nM | 0.017 nM | –
COC[C@H]1C[C@@H](c2nc3ccc4cc5c(cc4c3[nH]2)OCc2cc(-c3cnc([C@@H]4CC[C@H](C)N4C(=O)[C@@H](NC(=O)OC)C(C)C)[nH]3)ccc2-5)N(C(=O)[C@H](NC(=O)OC)c2ccccc2)C1 [Example NP, Methyl {(2S)-1-[(2S,5S)-2-(5-{2-[(2S,4S)-1-{(2R)-2-[(methoxycarbonyl)amino]-2-phenylacetyl}-4-(methoxymethyl)pyrrolidin-2-yl]-1,11 dihydroisochromeno[4′,3′:6,7]naphtho[1,2-d]imidazol-9-yl}-1H-imidazol-2-yl)-5-methylpyrrolidin-1-yl]-3-methyl-1-oxobutan-2-yl}carbamate] | < 1 nM | 0.007 nM | 26.1% | < 1 nM | 0.014 nM | < 1 nM | 0.028 nM | – | < 1 nM | 0.032 nM | < 1 nM | 0.043 nM | 0.011 nM | < 1 nM | 0.02 nM | < 1 nM | 0.096 nM | 0.01 nM | –
COC(=O)N[C@H](C(=O)N1[C@@H](C)CC[C@H]1c1ncc(-c2ccc3c(c2)COc2cc4c(ccc5nc([C@@H]6CC[C@H](C)N6C(=O)[C@@H](NC(=O)OC)[C@@H](C)OC)[nH]c54)cc2-3)[nH]1)[C@@H](C)OC [Example NI, Methyl [(2S,3R)-3-methoxy-1-{(2S,5S)-2-[9-(2-{(2S,5S)-1-[N-(methoxycarbonyl)-O-methyl-L-threonyl]-5-methylpyrrolidin-2-yl}-1H-imidazol-5-yl)-1,11-dihydroisochromeno[4′,3′:6,7]naphtho[1,2-d]imidazol-2-yl]-5-methylpyrrolidin-1-yl}-1-oxobutan-2-yl]carbamate] | < 1 nM | 0.007 nM | 24.1% | < 1 nM | 0.015 nM | < 1 nM | – | 0.02 nM | < 1 nM | 0.059 nM | < 1 nM | 0.054 nM | 0.019 nM | < 1 nM | 0.022 nM | < 1 nM | 0.169 nM | 0.026 nM | –
COC[C@H]1C[C@@H](c2nc3ccc4cc5c(cc4c3[nH]2)OCc2cc(-c3cnc([C@@H]4C[C@H](C)CN4C(=O)[C@@H](NC(=O)OC)C(C)C)[nH]3)ccc2-5)N(C(=O)[C@@H](NC(=O)OC)C(C)C)C1 [Example MO, methyl {(2S)-1-[(2S,4S)-2-(5-{2-[(2S,4S)-1-{(2S)-2-[(methoxycarbonyl)amino]-3-methylbutanoyl}-4-methoxymethylpyrrolidin-2-yl]-1,11-dihydroisochromeno[4′,3′:6,7]naphtho[1,2-d]imidazol-9-yl}-1H-imidazol-2-yl)-4-methylpyrrolidin-1-yl]-3-methyl-1-oxobutan-2-yl}carbamate] | < 1 nM | 0.007 nM | 7.46% | < 1 nM | 0.013 nM | < 1 nM | 0.018 nM | 0.022 nM | < 1 nM | 0.052 nM | < 1 nM | 0.427 nM | 0.137 nM | < 1 nM | 0.051 nM | < 1 nM | 0.471 nM | 0.089 nM | –
CCC(C)[C@H](NC(=O)OC)C(=O)N1C[C@@H](C)CC1c1ncc(-c2ccc3c(c2)COc2cc4c(ccc5nc([C@@H]6CC(COC)CN6C(=O)[C@H](NC(=O)OC)c6ccccc6)[nH]c54)cc2-3)[nH]1 (stereo in doubt) [Example QB, Methyl {(1R)-2-[(2S,4S)-2-(9-{2-[(2S,4S)-1-{(2S,3R)-2-[(methoxycarbonyl)amino]-3-methylpentanoyl}-4-methylpyrrolidin-2-yl]-1H-imidazol-5-yl}-1,11-dihydroisochromeno[4′,3′:6,7]naphtho[1,2-d]imidazol-2-yl)-4-(methoxymethyl)pyrrolidin-1-yl]-2-oxo-1-phenylethyl}carbamate] | < 1 nM | 0.008 nM | 9.56% | < 1 nM | 0.011 nM | – | – | – | < 1 nM | 0.029 nM | < 1 nM | – | 0.022 nM | < 1 nM | 0.028 nM | < 1 nM | – | 0.021 nM | 0.011 nM
